# From patent US8889874B2, “Imidazolone-chalcone derivatives as potential anticancer agent and process for the preparation thereof” (Council of Scientific and Industrial Research, priority 2010, dated 2014)
# Where two headings read alike, the source gives them in different places.
# Assays:
# Type in all cases: cell-based, human
# [1] = system: Ovarian cancer cell lines; test: NCI anticancer screen, SRB assay, panel summary; settings: Homo sapiens
# Summary of the method: (§1)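 Compounds were tested across fifty three human cancer cell lines from nine tumour types. Each line got a dose-response curve of at least five concentrations at 10-fold dilutions, with continuous drug exposure and sulforhodamine B protein staining to estimate viability or growth.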
# [2] = system: Prostate cancer cell lines; test: NCI anticancer screen, SRB assay, panel summary
# Summary of the method: as §1
# [3] = system: Melanoma cancer cell lines; test: NCI anticancer screen, SRB assay, panel summary; settings: for GI50: Homo sapiens
# Summary of the method: as §1
# [4] = system: Colon cancer cell lines; test: NCI anticancer screen, SRB assay, panel summary; settings: for GI50: Homo sapiens
# Summary of the method: as §1
# [5] = system: Breast cancer cell lines; test: NCI anticancer screen, SRB assay, panel summary; settings: Homo sapiens
# Summary of the method: as §1
# [6] = system: Leukemia cancer cell lines; test: NCI anticancer screen, SRB assay, panel summary; settings: Homo sapiens
# Summary of the method: as §1
# [7] = system: Renal cancer cell lines; test: NCI anticancer screen, SRB assay, panel summary; settings: Homo sapiens
# Summary of the method: as §1
# [8] = system: Non-small cell lung cancer cell lines; test: NCI anticancer screen, SRB assay, panel summary; settings: Homo sapiens
# Summary of the method: as §1
# [9] = system: CNS cancer cell lines; test: NCI anticancer screen, SRB assay, panel summary; settings: for GI50: Homo sapiens
# Summary of the method: as §1
# [10] = system: NCI/ADR-RES (ovarian); test: NCI anticancer screen, SRB assay, 48 h; settings: Homo sapiens, NCI/ADR-RES
# Summary of the method: as §1
# [11] = system: SN12C (renal); test: NCI anticancer screen, SRB assay, 48 h; settings: Homo sapiens, SN12C
# Summary of the method: as §1
# [12] = system: OVCAR-4 (ovarian); test: NCI anticancer screen, SRB assay, 48 h; settings: Homo sapiens
# Summary of the method: as §1
# [13] = system: CAKI-1 (renal); test: NCI anticancer screen, SRB assay, 48 h; settings: Homo sapiens
# Summary of the method: as §1
# [14] = system: HCT-116 (colon); test: NCI anticancer screen, SRB assay, 48 h; settings: Homo sapiens
# Summary of the method: as §1
# [15] = system: SNB-19 (CNS); test: NCI anticancer screen, SRB assay, 48 h; settings: Homo sapiens
# Summary of the method: as §1
# [16] = system: TD-47D (breast); test: NCI anticancer screen, SRB assay, 48 h; settings: Homo sapiens
# Summary of the method: as §1
# [17] = system: UACC-257 (melanoma); test: NCI anticancer screen, SRB assay, 48 h; settings: Homo sapiens
# Summary of the method: as §1
# [18] = system: TK-10 (renal); test: NCI anticancer screen, SRB assay, 48 h; settings: Homo sapiens
# Summary of the method: as §1
# [19] = system: U251 (CNS); test: NCI anticancer screen, SRB assay, 48 h; settings: Homo sapiens
# Summary of the method: as §1
# [20] = system: RPMI-8226 (leukemia cell line); test: NCI anticancer screen, SRB assay, 48 h; settings: Homo sapiens
# Summary of the method: as §1
# [21] = system: NCI-H226 (non-small cell lung); test: NCI anticancer screen, SRB assay, 48 h; settings: Homo sapiens
# Summary of the method: as §1
# [22] = system: HCT-15 (colon); test: NCI anticancer screen, SRB assay, 48 h; settings: Homo sapiens
# Summary of the method: as §1
# [23] = system: HCC-2998 (colon); test: NCI anticancer screen, SRB assay, 48 h; settings: Homo sapiens
# Summary of the method: as §1
# [24] = system: SK-MEL-5 (melanoma); test: NCI anticancer screen, SRB assay, 48 h; settings: Homo sapiens
# Summary of the method: as §1
# [25] = system: MDA-MB-435 (melanoma); test: NCI anticancer screen, SRB assay, 48 h; settings: Homo sapiens
# Summary of the method: as §1
# [26] = system: A549/ATCC (non-small cell lung); test: NCI anticancer screen, SRB assay, 48 h; settings: Homo sapiens
# Summary of the method: as §1
# [27] = read-out: pGI50 (-log of molar concentration causing 50% inhibition of net cell growth) (converted)
# [28] = 48 h exposure, SRB, read-out: GI50
smiles,measurement,setting,value
"COc1cc(/C=C/C(=O)c2cccc(-n3cc(-c4ccc(Cl)cc4)[nH]c3=O)c2)ccc1O [3f, 4-(4-chlorophenyl)-1-3-[(E)-3-(4-hydroxy-3-methoxyphenyl)-2-propenoyl]phenyl-2,3-dihydro-1H-2-imidazolone]",GI50,"[1]; Ovarian panel, log of concentration in mol/L causing 50% inhibition of net cell growth, read-out: mean graph midpoint (MG_MID) of Log10 GI50 (converted)",2750 nM
same,LC50,"[1]; Ovarian panel, log of concentration leading to 50% net cell death, read-out: mean graph midpoint (MG_MID) of Log10 LC50 (converted)",43700 nM
same,GI50,"[1]; six ovarian cancer cell lines, exposure at least 48 hrs, read-out: GI50, range over the panel",1560 to 4640 nM
same,GI50,"[2]; Homo sapiens, log of concentration in mol/L causing 50% inhibition of net cell growth, read-out: mean graph midpoint (MG_MID) of Log10 GI50 (converted)",1950 nM
same,LC50,"[2]; Homo sapiens, log of concentration leading to 50% net cell death, read-out: mean graph midpoint (MG_MID) of Log10 LC50 (converted)",66100 nM
same,mean graph midpoint (MG_MID) of Log10 TGI,[2]; log of concentration resulting in total inhibition of net cell growth,5.20
same,GI50,"[3]; Melanoma panel, log of concentration in mol/L causing 50% inhibition of net cell growth, read-out: mean graph midpoint (MG_MID) of Log10 GI50 (converted)",2820 nM
same,GI50,"[3]; nine melanoma cancer cell lines, exposure at least 48 hrs, read-out: GI50, range over the panel",1630 to 8690 nM
same,mean graph midpoint (MG_MID) of Log10 LC50,"[3]; Melanoma panel, log of concentration leading to 50% net cell death",4.32
same,mean graph midpoint (MG_MID) of Log10 LC50,"[4]; Colon panel, log of concentration leading to 50% net cell death",4.53
same,GI50,"[4]; Colon panel, log of concentration in mol/L causing 50% inhibition of net cell growth, read-out: mean graph midpoint (MG_MID) of Log10 GI50 (converted)",2040 nM
same,GI50,"[4]; seven colon cancer cell lines, exposure at least 48 hrs, read-out: GI50, range over the panel",1460 to 3400 nM
same,GI50,"[5]; Breast panel, log of concentration in mol/L causing 50% inhibition of net cell growth, read-out: mean graph midpoint (MG_MID) of Log10 GI50 (converted)",3240 nM
same,LC50,"[5]; Breast panel, log of concentration leading to 50% net cell death, read-out: mean graph midpoint (MG_MID) of Log10 LC50 (converted)",95500 nM
same,GI50,"[5]; five breast cancer cell lines, exposure at least 48 hrs, read-out: GI50, range over the panel",2300 to 4670 nM
same,GI50,"[6]; Leukemia panel, log of concentration in mol/L causing 50% inhibition of net cell growth, read-out: mean graph midpoint (MG_MID) of Log10 GI50 (converted)",1380 nM
same,LC50,"[6]; Leukemia panel, log of concentration leading to 50% net cell death, read-out: mean graph midpoint (MG_MID) of Log10 LC50 (converted)",55000 nM
same,GI50,"[6]; two leukemia cancer cell lines (RPMI-8226 and K-562), exposure at least 48 hrs, read-out: GI50, range over the panel",1330 to 1420 nM
same,GI50,"[7]; Renal panel, log of concentration in mol/L causing 50% inhibition of net cell growth, read-out: mean graph midpoint (MG_MID) of Log10 GI50 (converted)",2950 nM
same,LC50,"[7]; Renal panel, log of concentration leading to 50% net cell death, read-out: mean graph midpoint (MG_MID) of Log10 LC50 (converted)",63100 nM
same,GI50,"[7]; eight renal cancer cell lines, exposure at least 48 hrs, read-out: GI50, range over the panel",1670 to 6400 nM
same,GI50,"[8]; Non-small cell lung panel, log of concentration in mol/L causing 50% inhibition of net cell growth, read-out: mean graph midpoint (MG_MID) of Log10 GI50 (converted)",3550 nM
same,LC50,"[8]; Non-small cell lung panel, log of concentration leading to 50% net cell death, read-out: mean graph midpoint (MG_MID) of Log10 LC50 (converted)",85100 nM
same,GI50,"[8]; nine non-small cell lung cancer cell lines, exposure at least 48 hrs, read-out: GI50, range over the panel",1260 to 9610 nM
same,mean graph midpoint (MG_MID) of Log10 LC50,"[9]; CNS panel, log of concentration leading to 50% net cell death",4.29
same,GI50,"[9]; CNS panel, log of concentration in mol/L causing 50% inhibition of net cell growth, read-out: mean graph midpoint (MG_MID) of Log10 GI50 (converted)",3160 nM
same,GI50,"[9]; six CNS cancer cell lines, exposure at least 48 hrs, read-out: GI50, range over the panel",1780 to 10500 nM
same,GI50,"[10]; NCl/ADR-RES, 48 h exposure, SRB, read-out: GI50",2280 nM
same,GI50,[10]; [27],2290 nM
same,GI50,"[11]; SN 12C, read-out: pGI50 (-log of molar concentration causing 50% inhibition of net cell growth) (converted)",2880 nM
same,GI50,[11]; [28],2870 nM
same,GI50,[12]; [28],4640 nM
same,GI50,[12]; [27],4680 nM
same,GI50,[13]; [28],2640 nM
same,GI50,[13]; [27],2630 nM
same,GI50,[14]; [28],1460 nM
same,GI50,[14]; [27],1450 nM
same,GI50,[15]; [28],3170 nM
same,GI50,[15]; [27],3160 nM
same,GI50,[16]; [28],3090 nM
same,GI50,[16]; [27],3090 nM
same,GI50,[17]; [28],8690 nM
same,GI50,[17]; [27],8710 nM
same,GI50,[18]; [28],4670 nM
same,GI50,[18]; [27],4680 nM
same,GI50,"[19]; U-251, 48 h exposure, SRB, read-out: GI50",2230 nM
same,GI50,"[19]; U-251, read-out: pGI50 (-log of molar concentration causing 50% inhibition of net cell growth) (converted)",2240 nM
same,GI50,[20]; [28],1330 nM
same,GI50,[20]; [27],1320 nM
same,GI50,[21]; [28],2770 nM
same,GI50,[21]; [27],2750 nM
same,GI50,[22]; [28],1800 nM
same,GI50,[22]; [27],1820 nM
same,GI50,[23]; [28],1850 nM
same,GI50,[23]; [27],1860 nM
same,GI50,[24]; [28],1800 nM
same,GI50,[24]; [27],1820 nM
same,GI50,[25]; [28],2250 nM
same,GI50,[25]; [27],2240 nM
same,GI50,[26]; [28],6780 nM
same,GI50,[26]; [27],6760 nM
